Results taken from patent US8580753B2, “Modulation of telomere length in telomerase positive cells and cancer therapy” (ALT Solutions Inc., priority 2005, dated 2013).
Entries after “also recorded” stand apart in the source; their conditions may differ. Like-named read-outs stand apart in the source and are kept apart here.

Legend:
HeLa cell line [1] = assay: Telomere length by flow cytometry with telomere-specific PNA probe; type: cell-based, human
Protocol: (§1) Telomere length in GCV and ACV treated and untreated cell lines was measured by flow cytometry with a telomere-specific peptide nucleic acid (PNA) probe^23,24. To determine cell cycle distribution, cells were stained with propidium iodide (PI)^23.
(§2) The origin of the cell lines are uterine cervix (HeLa) and epithelial ovarian (NuTu-19). Cells were cultured in D-MEM media supplemented with 10% fetal calf serum at 37° C. in a humidified atmosphere of 5% CO2. For treatment of the cells with GCV, the media was supplemented with 1.5 µM of GCV (Cymevene, Hoffman-La Roche). For treatment of the cells with ACV, the media was supplemented with 3 µM of Aciclovir (Aciclovir, TEVA Pharm. Ind. Ltd, Israel).
(§3) For telomere length measurement by flow cytometry, cells were stained with telomere specific FITC conjugated (C3TA2)3 PNA (Applied Biosystems) probe and contrastained with 0.06 µg/ml PI as described by Rufer, N., Dragowska, W., Thornbury G., Roosnek, B., Lansdorp P. M. Telomere length dynamics in human lymphocyte subpopulations […]. Nat. Biotechnol. 16, 743-747 (1998)).

NuTu-19 cell line [2] = assay: as above; type: cell-based; settings: for telomere length: NuTu-19, GCV 1.5 μM or ACV 3.0 μM, 14 days
Protocol: as §1, §2, §3

HeLa cell line [3] = assay: Cell cycle distribution and apoptosis by propidium iodide staining and flow cytometry; type: cell-based, human
Protocol: as §1
(§4) It is important to note that changes were rapid and could be detected after only 14 days of ACV treatment. In contrast, the nucleoside analog, AZT had no effect on telomere length or cell cycle distribution in telomerase positive cells, HeLa and NuTu-19, even at elevated concentrations e.g., 100 µM (data not shown).
as §2, §3

NuTu-19 cell line [4] = assay: as above; type: cell-based
Protocol: as §1, §4, §2, §3

[5] = test system: telomerase positive cell lines; settings: prolonged exposure, cited from earlier work
[6] = single oral dose of 300 mg; cited from earlier work
mammalian cells = settings: short-time exposure, 5 μM, in vitro and in vivo; cited from earlier work
[7] = test system: telomerase positive cell lines; assay: DNA content by PI staining at later stages of treatment; type: cell-based; settings: compared to untreated cells, cell line not specified
Protocol: A rational explanation of this fact is a short telomere induced chromosome end-to-end joining^25.
as §2, §3

NuTu-19 cells = assay: Exemplary in vivo assay: pre-established NuTu-19 tumors in Fischer rats; settings: for tumor growth: in drinking water ad libitum, administered 21-28 days to tumor bearing rats
Protocol: In another embodiment, the reagents and methods of the invention can be used to promote tumor regression in vivo in immunocompetent animals carrying pre-established tumors; i.e., the reagents of the invention can be used to treat animals with pre-existing tumors. In this case, the cancerous 10^6 NuTu-19 cells are injected subcutaneously in the flank of the Fischer rats to establish tumors.

HeLa cells = assay: Nude mice injected s.c. with HeLa cells, Valcyte in drinking water; type: in vivo
Protocol: Human cancer HeLa cell culture was purchased from ATCC. In all, 12 CD1/-nu and 12 NMRiJI-nu nude mice were purchased from Charles River Laboratories, Charles River Deutschland GmbH. These nude mice were injected s.c. with […] HeLa cells. Experimental group received valganciclovir in drinking water from day 0. Specifically, mice in the experimental groups (6 mice per strain) were exposed to Valcyte (val-ganciclovir) in drinking water (1 mg/ml) from day 0. […] In about 14 days, all mice were bearing the tumors.

[8] = even at elevated concentrations e.g. 100 μM (data not shown)
[9] = NuTu-19, even at elevated concentrations e.g. 100 μM (data not shown)
[10] = GCV 1.5 μM or ACV 3.0 μM, 14 days
[11] = NuTu-19, GCV 1.5 μM or ACV 3.0 μM, 14 days

In the case of Cc1cn([C@H]2C[C@H](N=[N+]=[N-])[C@@H](CO)O2)c(=O)[nH]c1=O [AZT, 3′-azido-2′,3′-dideoxythymidine], the “effect on telomere length” value (HeLa cell line [1]; [8]) is reported as “no effect”, the “effect on telomere length” value (NuTu-19 cell line [2]; [9]) is reported as “no effect” and the “effect on cell cycle distribution” value (HeLa cell line [3]; [8]) is reported as “no effect”. The “effect on cell cycle distribution” value (NuTu-19 cell line [4]; [9]) was “no effect”, the telomere shortening ([5]; 100 μM (Murakami et al. 1999)) was “failed to induce any significant telomere shortening” and the telomere shortening ([5]; 800 μM (Gomez et al. 1998; Tejera et al. 2001)) was “failed to induce any significant telomere shortening”. The peak serum concentration [6] was “less than 10 μM”, the time of absorption [6] was ≤ 0.5 h and the “toxic effects on mammalian cells” value (mammalian cells) was “induces undesirable toxic effects”.

With Nc1nc2c(ncn2COCCO)c(=O)[nH]1 [ACV, 9-[2(hydromethoxy)-methyl] guanine] the telomere length (HeLa cell line [1]; [10]) was “telomere shortening”, the telomere length (NuTu-19 cell line [2]) was “decrease in telomere length; also recorded: telomere shortening” and the apoptosis (HeLa cell line [3]; [10]) was “massive apoptosis”. For the same compound, the cell cycle distribution (HeLa cell line [3]; [10]) was “G2 arrest”, the apoptosis (NuTu-19 cell line [4]; [11]) was “massive apoptosis” and the cell cycle distribution (NuTu-19 cell line [4]; [11]) was “changes in cell cycle; also recorded: G2 arrest”. For the same compound, the “DNA content (PI staining)” value [7] was “higher DNA content” and the tumor growth (NuTu-19 cells) was “retarded tumor growth”.

With CC(C)[C@H](N)C(=O)OCC(CO)OCn1cnc2c(=O)nc(N)[nH]c21 (stereo partly drawn) [Valcyte, valganciclovir] the tumor development (HeLa cells; 1 mg/ml in drinking water from day 0, all mice bearing tumors in about 14 days) was “All mice in control and treated groups had developed tumors”, the tumor regression (HeLa cells; one mouse from the treated group, by about the 30th day, monotherapy, 1 mg/ml in drinking water) was “this tumor was eliminated” and the tumor growth (HeLa cells; other mice in the treated groups, 1 mg/ml in drinking water) was “slowing of tumor growth (stabilization)”.

In the case of Nc1nc(O)c2ncn(COC(CO)CO)c2n1 [GCV, ganciclovir], the telomere length (HeLa cell line [1]; 1.5 μM GCV, 10 days, vs untreated cells (FIG. 1)) is reported as “decrease in telomere length”, the telomere length (HeLa cell line [1]; [10]) is reported as “telomere shortening” and the telomere length (NuTu-19 cell line [2]) is reported as “telomere shortening”. The apoptosis (HeLa cell line [3]; 1.5 μM GCV, 10 days (FIG. 1)) was “massive apoptosis”, the cell cycle distribution (HeLa cell line [3]; 1.5 μM GCV, 10 days (FIG. 1, FIG. 3)) was “changes in the cell cycle distribution” and the apoptosis (HeLa cell line [3]; [10]) was “massive apoptosis”. For the same compound, the cell cycle distribution (HeLa cell line [3]; [10]) was “G2 arrest”, the cell cycle distribution (NuTu-19 cell line [4]; NuTu-19, 1.5 μM GCV, 10 days (FIG. 3)) was “changes in the cell cycle distribution” and the apoptosis (NuTu-19 cell line [4]; [11]) was “massive apoptosis”. The cell cycle distribution (NuTu-19 cell line [4]; [11]) was “G2 arrest”, the “DNA content (PI staining)” value [7] was “higher DNA content” and the survival (NuTu-19 cells; few weeks after the start of the treatment) was 100%. The tumor growth (NuTu-19 cells) was “retarded tumor growth”.
